Data: patent US20170050957A1, “4-AMINO-6-(HETEROCYCLIC)PICOLINATES AND 6-AMINO-2-(HETEROCYCLIC)PYRIMIDINE-4-CARBOXYLATES AND THEIR USE AS HERBICIDES” (Dow AgroSciences LLC, priority 2013, published 2017)
Read-outs that look alike come from different tables or passages of the source.

Tests used:
[1] = tested on: Key Grass and Sedge Weeds as well as Grass Crops; assay: Post-emergent Test II herbicidal activity (Table 16); assay type: in vivo; conditions: post-emergence, 336 h, 14 days after application; for pest or weed control at 35 g/ha: 35 g ai/ha; for pest or weed control at 70 g/ha: 70 g ai/ha; for pest or weed control at 140 g/ha: 140 g ai/ha
How it was run: (§1)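 Visual injury rating (0 = none, 100% = complete kill) made 14 d after treatment, relative to untreated plants. Compounds in an acetone/DMSO/aqueous crop-oil/surfactant spray, at top rate and serial 1/2×-1/16× rates, were applied at 187 L/ha overhead to first-second true leaf plants raised 7-21 d in greenhouse.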

[2] = tested on: Key Broadleaf Weed and Crop Species; assay: Post-emergent Test II herbicidal activity (Table 15); assay type: in vivo; conditions: post-emergence, 336 h, 14 d; for pest or weed control at 35 g/ha: 35 g ai/ha; for pest or weed control at 70 g/ha: 70 g ai/ha; for pest or weed control at 140 g/ha: 140 g ai/ha
How it was run: as §1

[3] = Cyperus esculentus, yellow nutsedge (Cyperus esculentus), read-out: Visual Growth Reduction (%) 14 Days After Application CYPES
[4] = Echinochloa crus-galli, barnyardgrass (Echinochloa crus-galli), read-out: Visual Growth Reduction (%) 14 Days After Application ECHCG
[5] = Oryza sativa, rice (Oryza sativa), read-out: Visual Growth Reduction (%) 14 Days After Application ORYSA
[6] = Setaria faberi, giant foxtail (Setaria faberi), read-out: Visual Growth Reduction (%) 14 Days After Application SETFA
[7] = Triticum aestivum, wheat, spring (Triticum aestivum), read-out: Visual Growth Reduction (%) 14 Days After Application TRZAS
[8] = Zea mays, maize, corn (Zea mays), read-out: Visual Growth Reduction (%) 14 Days After Application ZEAMX
[9] = Abutilon theophrasti, velvetleaf (Abutilon theophrasti), read-out: Visual Growth Reduction (%) 14 Days After Application, ABUTH
[10] = Amaranthus retroflexus, redroot pigweed (Amaranthus retroflexus), read-out: Visual Growth Reduction (%) 14 Days After Application, AMARE
[11] = Brassica napus, oilseed rape, canola (Brassica napus), read-out: Visual Growth Reduction (%) 14 Days After Application, BRSNN
[12] = Chenopodium album, lambsquarters (Chenopodium album), read-out: Visual Growth Reduction (%) 14 Days After Application, CHEAL
[13] = Euphorbia heterophylla, wild poinsettia (Euphorbia heterophylla), read-out: Visual Growth Reduction (%) 14 Days After Application, EPHHL
[14] = Helianthus annuus, sunflower (Helianthus annuus), read-out: Visual Growth Reduction (%) 14 Days After Application, HELAN

melting point [°C] | Structure (SMILES) | pest or weed control at 35 g/ha [1, 3] [%] | pest or weed control at 70 g/ha [1, 3] [%] | pest or weed control at 140 g/ha [1, 3] [%] | pest or weed control at 35 g/ha [1, 4] [%] | pest or weed control at 70 g/ha [1, 4] [%] | pest or weed control at 140 g/ha [1, 4] [%] | pest or weed control at 35 g/ha [1, 5] [%] | pest or weed control at 70 g/ha [1, 5] [%] | pest or weed control at 140 g/ha [1, 5] [%] | pest or weed control at 35 g/ha [1, 7] [%] | pest or weed control at 70 g/ha [1, 7] [%] | pest or weed control at 140 g/ha [1, 7] [%] | pest or weed control at 35 g/ha [1, 8] [%] | pest or weed control at 70 g/ha [1, 8] [%] | pest or weed control at 140 g/ha [1, 8] [%] | pest or weed control at 35 g/ha [2, 9] [%] | pest or weed control at 70 g/ha [2, 9] [%] | pest or weed control at 140 g/ha [2, 9] [%] | pest or weed control at 35 g/ha [2, 10] [%] | also measured
186 to 187 | Nc1c(F)c(-c2ccc3scnc3c2)nc(C(=O)O)c1Cl [Compound 6.02] | 45 to 59 | 45 to 59 | 45 to 59 | 75 to 84 | 75 to 84 | 85 to 94 | 0 to 29 | 0 to 29 | 0 to 29 | 0 to 29 | 0 to 29 | 30 to 44 | 0 to 29 | 0 to 29 | 0 to 29 | 85 to 94 | 85 to 94 | 85 to 94 | 95 to 100 | pest or weed control at 35 g/ha [1, 6]: 0 to 29%; pest or weed control at 70 g/ha [1, 6]: 45 to 59%; pest or weed control at 140 g/ha [1, 6]: 60 to 74%; pest or weed control at 70 g/ha [2, 10]: 95 to 100%; pest or weed control at 140 g/ha [2, 10]: 95 to 100%; pest or weed control at 35 g/ha [2, 11]: 95 to 100%; pest or weed control at 70 g/ha [2, 11]: 95 to 100%; pest or weed control at 140 g/ha [2, 11]: 95 to 100%; pest or weed control at 35 g/ha [2, 12]: 95 to 100%; pest or weed control at 70 g/ha [2, 12]: 95 to 100%; pest or weed control at 140 g/ha [2, 12]: 95 to 100%; pest or weed control at 35 g/ha [2, 13]: 95 to 100%; pest or weed control at 70 g/ha [2, 13]: 95 to 100%; pest or weed control at 140 g/ha [2, 13]: 95 to 100%; pest or weed control at 35 g/ha [2, 14]: 95 to 100%; pest or weed control at 70 g/ha [2, 14]: 95 to 100%; pest or weed control at 140 g/ha [2, 14]: 95 to 100%
218 to 220 | COC(=O)c1nc(-c2ccc3ncn(C)c3c2)c(F)c(N)c1Cl [Compound 7.02] | 0 to 29 | 0 to 29 | 0 to 29 | 0 to 29 | 0 to 29 | 0 to 29 | 0 to 29 | 0 to 29 | 0 to 29 | 0 to 29 | 0 to 29 | 0 to 29 | 0 to 29 | 0 to 29 | 0 to 29 | 0 to 29 | 0 to 29 | 0 to 29 | 0 to 29 | pest or weed control at 70 g/ha [2, 10]: 0 to 29%; pest or weed control at 140 g/ha [2, 10]: 0 to 29%; pest or weed control at 35 g/ha [2, 11]: 0 to 29%; pest or weed control at 70 g/ha [2, 11]: 0 to 29%; pest or weed control at 140 g/ha [2, 11]: 0 to 29%; pest or weed control at 35 g/ha [2, 12]: 0 to 29%; pest or weed control at 70 g/ha [2, 12]: 75 to 84%; pest or weed control at 140 g/ha [2, 12]: 95 to 100%; pest or weed control at 35 g/ha [2, 13]: 0 to 29%; pest or weed control at 70 g/ha [2, 13]: 0 to 29%; pest or weed control at 140 g/ha [2, 13]: 0 to 29%; pest or weed control at 35 g/ha [2, 14]: 0 to 29%; pest or weed control at 70 g/ha [2, 14]: 0 to 29%; pest or weed control at 140 g/ha [2, 14]: 0 to 29%
